Reference: patent publication US11958844B2, “1,3,4-oxadiazole derivative compounds as histone deacetylase 6 inhibitor, and pharmaceutical composition comprising the same” (Chong Kun Dang Pharmaceutical Corp., priority 2018, dated 2024)

Molecular target: T1, HDAC6 human recombinant (Homo sapiens, UniProt Q9UBN7)
T1 sequence (Q9UBN7 1-1215): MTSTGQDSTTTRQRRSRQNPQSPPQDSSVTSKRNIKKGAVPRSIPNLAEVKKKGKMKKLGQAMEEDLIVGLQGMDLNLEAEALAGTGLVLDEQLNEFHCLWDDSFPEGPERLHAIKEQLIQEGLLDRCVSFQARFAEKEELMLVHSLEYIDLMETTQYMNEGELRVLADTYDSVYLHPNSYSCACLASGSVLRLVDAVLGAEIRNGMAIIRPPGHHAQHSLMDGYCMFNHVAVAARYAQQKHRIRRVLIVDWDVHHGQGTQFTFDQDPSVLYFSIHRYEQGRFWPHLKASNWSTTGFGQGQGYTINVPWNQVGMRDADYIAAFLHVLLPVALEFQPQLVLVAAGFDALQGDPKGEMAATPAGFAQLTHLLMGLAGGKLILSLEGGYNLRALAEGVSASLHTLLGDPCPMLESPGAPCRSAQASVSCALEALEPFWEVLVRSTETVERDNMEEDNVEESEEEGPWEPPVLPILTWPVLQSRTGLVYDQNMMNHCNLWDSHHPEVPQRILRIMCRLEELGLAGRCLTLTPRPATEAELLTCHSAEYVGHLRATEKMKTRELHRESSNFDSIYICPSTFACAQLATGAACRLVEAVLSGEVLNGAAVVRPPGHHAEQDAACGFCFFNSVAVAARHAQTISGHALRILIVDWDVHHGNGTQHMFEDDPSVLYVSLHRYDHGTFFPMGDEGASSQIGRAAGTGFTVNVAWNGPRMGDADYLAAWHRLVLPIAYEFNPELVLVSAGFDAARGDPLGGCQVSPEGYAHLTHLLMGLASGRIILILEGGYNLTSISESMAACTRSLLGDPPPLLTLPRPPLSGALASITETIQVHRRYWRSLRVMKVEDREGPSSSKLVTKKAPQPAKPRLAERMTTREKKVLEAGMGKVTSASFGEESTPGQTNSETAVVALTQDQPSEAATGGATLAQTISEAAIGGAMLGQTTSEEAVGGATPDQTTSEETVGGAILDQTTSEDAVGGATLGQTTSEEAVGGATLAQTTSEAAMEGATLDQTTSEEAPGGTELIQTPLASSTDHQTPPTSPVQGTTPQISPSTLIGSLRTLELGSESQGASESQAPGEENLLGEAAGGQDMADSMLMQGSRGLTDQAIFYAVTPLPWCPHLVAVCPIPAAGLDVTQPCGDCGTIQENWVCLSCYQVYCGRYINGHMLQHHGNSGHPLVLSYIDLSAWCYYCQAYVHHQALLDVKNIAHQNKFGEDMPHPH
Experiment: HDAC enzyme activity inhibition (in vitro), fluorimetric HDAC6 assay
Format: biochemical
Conditions: samples at 0.1, 1, 10, 100 and 1000 nM, 37° C. 60 minutes, fluorescence Ex 390, Em 460
Experimental: To identify this, HDAC1/6 enzyme selectivity and cell selectivity (HDAC1: histone acetylation/HDAC6: tubulin acetylation) were investigated accordingly.
An HDAC enzyme inhibitory ability of a test material was measured by means of HDAC1 Fluorimetric Drug Discovery Assay Kit (Enzolifesciences: BML-AK511) and HDAC6 human recombinant (Calbiochem: 382180). For an HDAC1 assay, samples were treated at a concentration of 100, 1000 and 10000 nM. For an HDAC6 assay, samples were treated at a concentration of 0.1, 1, 10, 100 and 1000 nM. After such sample treatment, a reaction was continued at 37° C. for 60 minutes, then treated with a developer, and then subjected to reaction at 37° C. for 30 minutes, after which fluorescence intensity (Ex 390, Em 460) was measured by means of FlexStation3 (Molecular device).

SMILES	IC50 [nM]
O=c1cc(-c2nnc(C(F)F)o2)ccn1Cc1noc(C(F)(F)F)n1 [Compound 28, 4-(5-(difluoromethyl)-1,3,4-oxadiazole-2-yl)-1-((5-(trifluoromethyl)-1,2,4-oxadiazole-3-yl)methyl)pyridine-2(1H)-one]	156
CC(C)=CCn1ccc(-c2nnc(C(F)F)o2)cc1=O [Compound 54, 4-(5-(difluoromethyl)-1,3,4-oxadiazole-2-yl)-1-(3-methylbut-2-en-1-yl)pyridine-2(1H)-one]	663
O=C(C(Cn1ccc(-c2nnc(C(F)F)o2)cc1=O)c1ccccc1)N1CCS(=O)(=O)CC1 (stereo not drawn) [Compound 44]	382
O=C(Cn1ccc(-c2nnc(C(F)F)o2)cc1=O)c1ccc(Cl)s1 [Compound 56, 1-(2-(5-chlorothiophene-2-yl)-2-oxoethyl)-4-(5-(difluoromethyl)-1,3,4-oxadiazole-2-yl)pyridine-2(1H)-one]	126
CS(=O)(=O)c1ccc(C(=O)Cn2ccc(-c3nnc(C(F)(F)F)o3)cc2=O)cc1 [Compound 35, 1-(2-(4-(methylsulfonyl)phenyl)-2-oxoethyl)-4-(5-(trifluoromethyl)-1,3,4-oxadiazole-2-yl)pyridine-2(1H)-one]	2210
O=c1cc(-c2nnc(C(F)(F)F)o2)ccn1Cc1ccccc1F [Compound 32, 1-(2-fluorobenzyl)-4-(5-(trifluoromethyl)-1,3,4-oxadiazole-2-yl)pyridine-2(1H)-one]	2420
O=C(Cn1ccc(-c2nnc(C(F)(F)F)o2)cc1=O)c1coc2ccccc12 [Compound 38, 1-(2-(benzofuran-3-yl)-2-oxoethyl)-4-(5-(trifluoromethyl)-1,3,4-oxadiazole-2-yl)pyridine-2(1H)-one]	2390
O=c1cc(-c2nnc(C(F)F)o2)ccn1Cc1ccccc1Cl [Compound 12, 1-(2-chlorobenzyl)-4-(5-(difluoromethyl)-1,3,4-oxadiazole-2-yl)pyridine-2(1H)-one]	631
O=C(Cn1ccc(-c2nnc(C(F)(F)F)o2)cc1=O)c1cccs1 [Compound 36, 1-(2-oxo-2-(thiophene-2-yl)ethyl)-4-(5-(trifluoromethyl)-1,3,4-oxadiazole-2-yl)pyridine-2(1H)-one]	935
O=C(N[C@@H](Cn1ccc(-c2nnc(C(F)F)o2)cc1=O)c1ccccc1)N1CCOCC1 [Compound 57, (R)—N-(2-(4-(5-(difluoromethyl)-1,3,4-oxadiazole-2-yl)-2-oxopyridine-1(2H)-yl)-1-phenylethyl)morpholine-4-carboxamide]	301
O=c1cc(-c2nnc(C(F)F)o2)ccn1Cc1ccccc1F [Compound 17, 4-(5-(difluoromethyl)-1,3,4-oxadiazole-2-yl)-1-(2-fluorobenzyl)pyridine-2(1H)-one]	507
O=C(Cn1ccc(-c2nnc(C(F)F)o2)cc1=O)c1ccc(Cl)cc1 [Compound 19, 1-(2-(4-chlorophenyl)-2-oxoethyl)-4-(5-(difluoromethyl)-1,3,4-oxadiazole-2-yl)pyridine-2(1H)-one]	351
O=c1cc(-c2nnc(C(F)(F)F)o2)ccn1Cc1cc(F)ccc1F [Compound 33, 1-(2,5-difluorobenzyl)-4-(5-(trifluoromethyl)-1,3,4-oxadiazole-2-yl)pyridine-2(1H)-one]	1270
O=c1cc(-c2nnc(C(F)(F)F)o2)ccn1Cc1cc(F)c(F)cc1F [Compound 30, 1-(2,4,5-trifluorobenzyl)-4-(5-(trifluoromethyl)-1,3,4-oxadiazole-2-yl)pyridine-2(1H)one]	1790
O=C(OCCn1ccc(-c2nnc(C(F)(F)F)o2)cc1=O)c1ccccc1 [Compound 39, 2-(2-oxo-4-(5-(trifluoromethyl)-1,3,4-oxadiazole-2-yl)pyridine-1(2H)-yl)ethyl benzoate]	900
CCN(CC)CCn1ccc(-c2nnc(C(F)F)o2)cc1=O [Compound 11, 1-(2-(diethylamino)ethyl)-4-(5-(difluoromethyl)-1,3,4-oxadiazole-2-yl)pyridine-2(1H)one]	2250
O=C(Cn1ccc(-c2nnc(C(F)(F)F)o2)cc1=O)OCc1ccccc1 [Compound 40, benzyl 2-(2-oxo-4-(5-(trifluoromethyl)-1,3,4-oxadiazole-2-yl)pyridine-1(2H)-yl)acetate]	945
O=c1cc(-c2nnc(C(F)F)o2)ccn1Cc1cc(F)ccc1F [Compound 10, 1-(2,5-difluorobenzyl)-4-(5-(difluoromethyl)-1,3,4-oxadiazole-2-yl)pyridine-2(1H)-one]	217
O=C(Cn1ccc(-c2nnc(C(F)F)o2)cc1=O)OCc1ccccc1 [Compound 15, benzyl 2-(4-(5-(difluoromethyl)-1,3,4-oxadiazole-2-yl)-2-oxopyridine-1(2H)-yl)acetate]	74
O=c1cc(-c2nnc(C(F)F)o2)ccn1CCn1cccn1 [Compound 6, 1-(2-(1H-pyrazole-1-yl)ethyl)-4-(5-(difluoromethyl)-1,3,4-oxadiazole-2-yl)pyridine-2(1H)-one]	456
O=C(Cn1ccc(-c2nnc(C(F)F)o2)cc1=O)c1ccc2ccccc2c1 [Compound 7, 4-(5-(difluoromethyl)-1,3,4-oxadiazole-2-yl)-1-(2-(naphthalene-2-yl)-2-oxoethyl)pyridine-2(1H)-one]	364
